Laboratory results: patent publication US9604964B2, “Dihydropyrazole GPR40 modulators” (BRISTOL-MYERS SQUIBB COMPANY, priority 2012, dated 2017)

Target: human GPR40 (Homo sapiens, UniProt O14842)
Assay: FDSS-based intracellular calcium assay (Human GPR40 in vitro assay)
Type: cell-based
Parameters: 3xFLAG; expressed in transfected cells
Details: intracellular Ca2+ response, cells expressing GPR40; read-out: hGPR40 EC50
Experimental: FDSS-based Intracellular Calcium Assay
Compounds are dissolved in DMSO and diluted to desired concentrations with assay buffer and added to the cells as 3× solution (20 μL per well). Run fluorescence/luminescence reader FDSS (Hamamatsu) to read intracellular Ca^2+ response.

human GPR40, sequence (O14842 whole entry): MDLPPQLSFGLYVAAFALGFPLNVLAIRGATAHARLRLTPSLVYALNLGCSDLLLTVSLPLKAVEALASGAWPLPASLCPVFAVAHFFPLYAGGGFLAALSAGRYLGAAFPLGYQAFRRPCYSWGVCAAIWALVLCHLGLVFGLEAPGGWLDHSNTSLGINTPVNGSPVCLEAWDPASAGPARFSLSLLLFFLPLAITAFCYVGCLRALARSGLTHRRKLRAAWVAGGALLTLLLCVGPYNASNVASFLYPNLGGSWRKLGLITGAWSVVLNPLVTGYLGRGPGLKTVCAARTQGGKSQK

| Compound | EC50 |
| --- | --- |
| Cc1nc(C)c(N2CCC(Oc3ccc(N4N=C(C(F)(F)F)[C@@H](C)[C@@H]4CC(=O)O)cc3)CC2)s1 [Example B16, 2-((4S,5S)-1-(4-((1-(2,4-Dimethylthiazol-5-yl)piperidin-4-yl)oxy)phenyl)-4-methyl-3-(trifluoromethyl)-4,5-dihydro-1H-pyrazol-5-yl)acetic acid] | 1.1 µM |
| Cc1nc2ccc(N3CCC(Oc4ccc(N5N=C(C(F)(F)F)[C@@H](C)[C@@H]5CC(=O)O)cc4)CC3)cc2o1 [Example B18, 2-((4S,5S)-4-Methyl-1-(4-((1-(2-methylbenzo[d]oxazol-6-yl)piperidin-4-yl)oxy)phenyl)-3-(trifluoromethyl)-4,5-dihydro-1H-pyrazol-5-yl)acetic acid] | 5.2 µM |
| C[C@@H]1C(C(F)(F)F)=NN(c2ccc(OC3CCN(S(=O)(=O)C4CCCC4)CC3)cc2)[C@H]1CC(=O)O [Example B24, 2-((4S,5S)-1-(4-((1-(Cyclopentylsulfonyl)piperidin-4-yl)oxy)phenyl)-4-methyl-3-(trifluoromethyl)-4,5-dihydro-1H-pyrazol-5-yl)acetic acid] | 3.6 µM |
| C[C@@H]1C(C(F)(F)F)=NN(c2ccc(OC3CCN(S(=O)(=O)c4ccccc4C(F)(F)F)CC3)cc2)[C@H]1CC(=O)O [Example B25, 2-((4S,5S)-4-Methyl-3-(trifluoromethyl)-1-(4-((1-((2-(trifluoromethyl)phenyl)sulfonyl)piperidin-4-yl)oxy)phenyl)-4,5-dihydro-1H-pyrazol-5-yl)acetic acid] | 4.42 µM |
| Cc1ccccc1S(=O)(=O)N1CCC(Oc2ccc(N3N=C(C(F)(F)F)[C@@H](C)[C@@H]3CC(=O)O)cc2)CC1 [Example B27, 2-((4S,5S)-4-Methyl-1-(4-((1-(o-tolylsulfonyl)piperidin-4-yl)oxy)phenyl)-3-(trifluoromethyl)-4,5-dihydro-1H-pyrazol-5-yl)acetic acid] | 4.85 µM |
| C[C@@H]1C(C(F)(F)F)=NN(c2ccc(OCC3CN(C(=O)OC(C)(C)C)C3)cc2)[C@H]1CC(=O)O [Example B30, 2-((4S,5S)-1-(4-((1-(tert-Butoxycarbonyl)azetidin-3-yl)methoxy)phenyl)-4-methyl-3-(trifluoromethyl)-4,5-dihydro-1H-pyrazol-5-yl)acetic acid] | 2.77 µM |
| COc1cccc(N2CC(COc3ccc(N4N=C(C(F)(F)F)[C@@H](C)[C@@H]4CC(=O)O)cc3)C2)c1 [Example B32, 2-((4S,5S)-1-(4-((1-(3-Methoxyphenyl)azetidin-3-yl)methoxy)phenyl)-4-methyl-3-(trifluoromethyl)-4,5-dihydro-1H-pyrazol-5-yl)acetic acid] | 1.09 µM |
| C[C@@H]1C(C(F)(F)F)=NN(c2ccc(OCC3CN(c4ccc5c(c4)OCO5)C3)cc2)[C@H]1CC(=O)O [Example B34, 2-((4S,5S)-1-(4-((1-(benzo[d] [1,3]dioxol-5-yl)azetidin-3-yl)methoxy)phenyl)-4-methyl-3-(trifluoromethyl)-4,5-dihydro-1H-pyrazol-5-yl)acetic acid] | 4.76 µM |
| COc1cc(N2CC(CCc3ccc(N4N=C(C(F)(F)F)[C@@H](C)[C@@H]4CC(=O)O)cc3)C2)c(Cl)cn1 [Example B36, 2-((4S,5S)-1-(4-(2-(1-(5-chloro-2-methoxypyridin-4-yl)azetidin-3-yl)ethyl)phenyl)-4-methyl-3-(trifluoromethyl)-4,5-dihydro-1H-pyrazol-5-yl)acetic acid] | 0.591 µM |

Continued by falling EC50, values first:

| EC50 | Compound |
| --- | --- |
| 7.95 µM | C[C@@H]1C(C(F)(F)F)=NN(c2ccc(OC3CCN(S(=O)(=O)c4ccccc4C#N)CC3)cc2)[C@H]1CC(=O)O [Example B21] |
| 6.2 µM | C[C@@H]1C(C(F)(F)F)=NN(c2ccc(OC3CCN(c4cccc5c4OCCO5)CC3)cc2)[C@H]1CC(=O)O [Example B19, 2-((4S,5S)-1-(4-((1-(2,3-Dihydrobenzo[b][1,4]dioxin-5-yl)piperidin-4-yl)oxy)phenyl)-4-methyl-3-(trifluoromethyl)-4,5-dihydro-1H-pyrazol-5-yl)acetic acid] |
| 5.27 µM | COc1ccnc(N2CCC(Oc3ccc(N4N=C(C(F)(F)F)[C@@H](C)[C@@H]4CC(=O)O)cc3)CC2)n1 [Example B28, 2-((4S,5S)-1-(4-((1-(4-methoxypyrimidin-2-yl)piperidin-4-yl)oxy)phenyl)-4-methyl-3-(trifluoromethyl)-4,5-dihydro-1H-pyrazol-5-yl)acetic acid] |
| 4.76 µM | COc1ccc(F)c(N2CC(COc3ccc(N4N=C(C(F)(F)F)[C@@H](C)[C@@H]4CC(=O)O)cc3)C2)c1 [Example B35, 2-((4S,5S)-1-(4-((1-(2-fluoro-5-methoxyphenyl)azetidin-3-yl)methoxy)phenyl)-4-methyl-3-(trifluoromethyl)-4,5-dihydro-1H-pyrazol-5-yl)acetic acid] |
| 4.59 µM | C[C@@H]1C(C(F)(F)F)=NN(c2ccc(OC3CCN(c4cc(-n5cccn5)ccc4F)CC3)cc2)[C@H]1CC(=O)O [Example B20, 2-((4S,5S)-1-(4-((1-(2-Fluoro-5-(1H-pyrazol-1-yl)phenyl)piperidin-4-yl)oxy)phenyl)-4-methyl-3-(trifluoromethyl)-4,5-dihydro-1H-pyrazol-5-yl)acetic acid] |
| 3.77 µM | C[C@@H]1C(C(F)(F)F)=NN(c2ccc(OCC3CN(S(=O)(=O)C4CCCCC4)C3)cc2)[C@H]1CC(=O)O [Example B31, 2-((4S,5S)-1-(4-((1-(Cyclohexylsulfonyl)azetidin-3-yl)methoxy)phenyl)-4-methyl-3-(trifluoromethyl)-4,5-dihydro-1H-pyrazol-5-yl)acetic acid] |
| 3.68 µM | COc1nc(N2CCC(Oc3ccc(N4N=C(C(F)(F)F)[C@@H](C)[C@@H]4CC(=O)O)cc3)CC2)ncc1F [Example B29, 2-((4S,5S)-1-(4-((1-(5-Fluoro-4-methoxypyrimidin-2-yl)piperidin-4-yl)oxy)phenyl)-4-methyl-3-(trifluoromethyl)-4,5-dihydro-1H-pyrazol-5-yl)acetic acid] |
| 2.49 µM | C[C@@H]1C(C(F)(F)F)=NN(c2ccc(OC3CCN(c4cc(-c5ncco5)ccc4F)CC3)cc2)[C@H]1CC(=O)O [Example B17, 2-((4S,5S)-1-(4-((1-(2-Fluoro-5-(oxazol-2-yl)phenyl)piperidin-4-yl)oxy)phenyl)-4-methyl-3-(trifluoromethyl)-4,5-dihydro-1H-pyrazol-5-yl)acetic acid] |
| 2 µM | CC(C)CS(=O)(=O)N1CCC(Oc2ccc(N3N=C(C(F)(F)F)[C@@H](C)[C@@H]3CC(=O)O)cc2)CC1 [Example B23, 2-((4S,5S)-1-(4-((1-(isobutylsulfonyl)piperidin-4-yl)oxy)phenyl)-4-methyl-3-(trifluoromethyl)-4,5-dihydro-1H-pyrazol-5-yl)acetic acid] |
| 1.33 µM | C[C@@H]1C(C(F)(F)F)=NN(c2ccc(OC3CCN(S(=O)(=O)C4CCCCC4)CC3)cc2)[C@H]1CC(=O)O [Example B22, 2-((4S,5S)-1-(4-((1-(cyclohexylsulfonyl)piperidin-4-yl)oxy)phenyl)-4-methyl-3-(trifluoromethyl)-4,5-dihydro-1H-pyrazol-5-yl)acetic acid] |
| 0.774 µM | COc1cc(N2CCC(Oc3ccc(N4N=C(C(F)(F)F)[C@@H](C)[C@@H]4CC(=O)O)cc3)C3(CC3)C2)c(Cl)cn1 (stereo partly drawn) [Example B37, 2-((4S,5S)-1-(4-((5-(5-chloro-2-methoxypyridin-4-yl)-5-azaspiro[2.5]octan-8-yl)oxy)phenyl)-4-methyl-3-(trifluoromethyl)-4,5-dihydro-1H-pyrazol-5-yl)acetic acid] |
| 0.713 µM | COc1cc(N2CC(COc3ccc(N4N=C(C(F)(F)F)[C@@H](C)[C@@H]4CC(=O)O)cc3)C2)c(Cl)cn1 [Example B33, 2-((4S,5S)-1-(4-((1-(5-chloro-2-methoxypyridin-4-yl)azetidin-3-yl)methoxy)phenyl)-4-methyl-3-(trifluoromethyl)-4,5-dihydro-1H-pyrazol-5-yl)acetic acid] |
